Results published in article PMC7269337, “Spiro-containing derivatives show antiparasitic activity against Trypanosoma brucei through inhibition of the trypanothione reductase enzyme” (PLoS Neglected Tropical Diseases, 2020).
≈ marks a conversion by molar mass, not a printed value. Like-named read-outs stand apart in the source and are kept apart here.

Tests used:
[1] = biological target: T1, TbTR (Trypanosoma brucei trypanothione reductase) (Trypanosoma brucei brucei, UniProt P39051); experiment: TbTR luminescent (NADPH-Glo) enzyme assay; assay type: biochemical
T1 construct: the gene coding for the enzyme (aa 1–492) was codon optimized for the expression in E.coli; made in house; host or cells: E. coli BL21(DE3)
T1 sequence (P39051 whole entry, the tested form may be a part): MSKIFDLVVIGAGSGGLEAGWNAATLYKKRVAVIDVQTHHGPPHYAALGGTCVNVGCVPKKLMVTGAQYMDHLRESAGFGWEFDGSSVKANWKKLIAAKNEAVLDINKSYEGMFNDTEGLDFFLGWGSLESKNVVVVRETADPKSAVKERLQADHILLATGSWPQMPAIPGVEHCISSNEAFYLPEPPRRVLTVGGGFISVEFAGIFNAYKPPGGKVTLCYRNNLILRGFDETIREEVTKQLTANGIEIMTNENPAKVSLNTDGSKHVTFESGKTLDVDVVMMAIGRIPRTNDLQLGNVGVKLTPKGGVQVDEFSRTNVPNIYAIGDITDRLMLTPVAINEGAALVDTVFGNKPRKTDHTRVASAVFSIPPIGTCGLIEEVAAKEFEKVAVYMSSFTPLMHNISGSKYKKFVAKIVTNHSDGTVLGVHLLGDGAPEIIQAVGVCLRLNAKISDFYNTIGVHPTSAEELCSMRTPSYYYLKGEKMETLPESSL
Experimental: (§1) Compounds from 10 mM stock solutions were transferred to assay plates by acoustic transfer (EDC Biosystems, Milmont, CA). The TbTR luminescent assay was performed in 384-well white plate (Greiner Bio One, Frickenhausen, Germany). The following components were added to the plates to a final volume of 30 μL: 0.1 nM TR, 20 μM NADPH, 10 μM TS2 in 50 mM HEPES (pH 7.4), 40 mM NaCl, 0.01% BSA. After 60 min of incubation at room temperature the residual amount of NADPH was measured by addition of an equal volume of NADPH-Glo as per the manufacturer’s protocol and the luminescent signal was acquired by an EnVision plate reader (PerkinElmer, Waltham, MA). The DTNB assay was performed in a final volume of 50 μl by addition of 2 nM TR, 100 μM NADPH, 4 μM TS2 and 200 μM DTNB in 40 mM HEPES (pH 7.4), 1 mM EDTA, 0.01% BSA and 0.05% Tween-20. After 10 minutes of incubation at room temperature the absorbance signal (412 nm) was detected using the Safire2 plate reader (Tecan, Switzerland). The human glutathione reductase (hGR) activity assay was carried out as described by Turcano et al.[23]. Results were analyzed using Prism software (GraphPad, San Diego, CA) and Vortex (Dotmatics, Bioshops Stortford, UK). Dose-response curves were fitted by four-parameter logistic regression.
The TbTR enzyme enzyme was produced in bacteria, purified as described in materials and methods and used to develop an in vitro enzyme assay (Fig 1A). To measure TbTR activity, a luminescent assay was optimized starting from a design that we previously described. First we determined the linearity range of the NADPH detection signal via NADPH-Glo kit that was determined to be 50 μM (Fig 1B). The Km (apparent) value for TS2 was calculated using 1 nM TR in the presence of serial dilutions of TS2 and a fixed concentration of 40 μM NADPH. The luminescence signal was detected in the first 10 min of reaction. NADPH depletion, calculated using the NADPH standard curve (Fig 1B), allowed the determination of the apparent Km values by the Michaelis-Menten kinetic (Fig 1C). The Km for TS2 was calculated to be 4.0 ± 0.7 μM. To further optimize the assay, a time course experiment was carried out. Different concentrations of the TbTR enzyme, ranging from 0.025 to 0.2 nM, were used, while the TS2 concentration was fixed near the Km value (5 μM) and the NADPH concentration was 20 μM that falls within the linearity range observed for the NADPH standard curve. 0.1 nM TbTR at and 60 min of incubation were judged to be an optimal compromise for preserving the reaction linearity along with a good signal to background ratio (Fig 1D) and allowing a suitable time for the screening operations. The final conditions used for the screening were: 0.1 nM TbTR, 5 μM TS2, 20 μM NADPH with the incubation time of the reaction being 60 minutes.

TbTR [2] = biological target: T2, TbTR (Trypanosoma brucei brucei, UniProt P39051); experiment: TbTR DTNB absorbance assay; assay type: biochemical
T2 construct: the gene coding for the enzyme (aa 1–492) was codon optimized for the expression in E.coli; made in house; host or cells: E. coli BL21(DE3)
T2 sequence (P39051 whole entry, the tested form may be a part): as above
Experimental: as §1, with “The DTNB assay was performed in a final volume of 50 μl by addition of 2 nM TR, 100 μM NADPH, 4 μM TS2 and 200 μM DTNB in 40 mM HEPES (pH 7.4), 1 mM EDTA, 0.01% BSA and 0.05% Tween-20.” left out, “The human glutathione reductase (hGR) activity assay was carried out as described by Turcano et al.[23].” left out, “Dose-response curves were fitted by four-parameter logistic regression.” left out
(§2) L. infantum TR was cloned and purified as previously described.[1] […] After 60 min of incubation at room temperature, an equal volume of NADPH-Glo reagent was added and the luminescent signal was acquired by an EnVision plate reader […]
(§3) after 30 minute (Figure S1) according to the reagent data sheet. […] The absorbance signal (412 nm) was acquired 15 minutes post incubation at room temperature using the plate reader (Safire2, Tecan, Switzerland). […]

[3] = biological target: T3, human glutathione reductase (hGR) (Homo sapiens, UniProt P00390); experiment: human glutathione reductase (hGR) activity assay; assay type: biochemical
T3 construct: purchased Sigma-Aldrich
T3 sequence (P00390 44-522): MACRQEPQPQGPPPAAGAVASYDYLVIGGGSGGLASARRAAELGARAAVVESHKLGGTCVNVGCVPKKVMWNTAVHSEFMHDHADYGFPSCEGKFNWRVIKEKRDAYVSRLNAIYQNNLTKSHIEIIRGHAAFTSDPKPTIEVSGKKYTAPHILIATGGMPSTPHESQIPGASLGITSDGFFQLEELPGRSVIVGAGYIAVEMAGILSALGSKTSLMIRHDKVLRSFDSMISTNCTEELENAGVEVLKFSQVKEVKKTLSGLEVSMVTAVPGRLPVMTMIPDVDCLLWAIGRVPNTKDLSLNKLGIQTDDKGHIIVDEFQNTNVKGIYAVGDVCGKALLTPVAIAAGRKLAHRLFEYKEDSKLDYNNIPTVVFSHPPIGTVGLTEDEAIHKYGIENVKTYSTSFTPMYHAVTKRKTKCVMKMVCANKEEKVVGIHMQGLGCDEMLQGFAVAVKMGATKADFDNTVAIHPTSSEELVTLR
Experimental: as §1, with “The DTNB assay was performed in a final volume of 50 μl by addition of 2 nM TR, 100 μM NADPH, 4 μM TS2 and 200 μM DTNB in 40 mM HEPES (pH 7.4), 1 mM EDTA, 0.01% BSA and 0.05% Tween-20.” left out, “The human glutathione reductase (hGR) activity assay was carried out as described by Turcano et al.[23].” left out, “Dose-response curves were fitted by four-parameter logistic regression.” left out
as §2, §3

TbTR [4] = biological target: T2, TbTR; experiment: SPR binding assay on immobilized TbTR
Experimental: Surface Plasmon resonance (SPR) interaction analysis were performed using a Biacore T200 (GE Healthcare, Uppsala, Sweden). TbTR was immobilized on a CM4 chip by amine coupling according to manufacturer’s instructions (Amine Coupling Kit, GE Healthcare, Uppsala, Sweden). Briefly, the surface of the sensor chip was activated for 7 minutes using a mixture of 0.1 M N-hydroxy succinimide (NHS) and 0.4 M N-ethyl-N’-[3-dimethyl-aminopropyl] carbodiimide (EDC) then 30 μg/ml of […] in 10 mM sodium acetate (pH 4.5) was injected for 360 s at 10 μl/min, finally residual activated groups on the surface were blocked by a 7 min injection of 1 M ethanolamine (pH 8.5). A reference channel for background subtraction was prepared by activation with EDC/NHS mixture (0.1 M/0.4 M as per ligand immobilization), followed by blocking with 1 M ethanolamine. The binding of the selected hit to the immobilized ligand was evaluated by a multi-cycle kinetic procedure in PBS-P (GE Healthcare Lifescience) supplemented with 2% DMSO (Sigma Aldrich). The analyte was injected for 60 s at 50 μl/min until equilibrium and dissociation monitored for 600 s. A standard curve of DMSO was included for solvent correction.
Biomolecular binding events were reported as changes of resonance units (RUs) over time. The data were analyzed by the Biacore T200 evaluation software. The sensorgrams were obtained, by subtracting the signals of the reference channel to those of the TbTR-immobilized one, and corrected for DMSO interference using the DMSO standard curve. The binding affinity was evaluated from kinetic parameters (koff/kon) calculated according to a heterogeneous ligand binding model.

TbTR [5] = biological target: T2, TbTR; experiment: TS2 competition assay (TbTR luminescent assay); assay type: biochemical; details: 5 or 25 μM compound
Experimental: Competition experiments were performed at two different compound concentrations (5 μM and 25 μM) by TbTR luminescent assay. The apparent Km values for TS2 in presence of 20 μM NADPH were calculated using 1 nM TR after 10 min incubation. […] The luminescent signal was measured using the EnVision plate reader (PerkinElmer, USA). IC50, Vmax, and Km values were calculated using Prism software (GraphPad, San Diego, CA).

[6] = biological target: T4, Leishmania infantum TR (LiTR) (Leishmania infantum, UniProt A4HSF7); experiment: LiTR luminescent (NADPH-Glo) enzyme assay; assay type: biochemical
T4 construct: made in house
T4 sequence (A4HSF7 entry or part of it): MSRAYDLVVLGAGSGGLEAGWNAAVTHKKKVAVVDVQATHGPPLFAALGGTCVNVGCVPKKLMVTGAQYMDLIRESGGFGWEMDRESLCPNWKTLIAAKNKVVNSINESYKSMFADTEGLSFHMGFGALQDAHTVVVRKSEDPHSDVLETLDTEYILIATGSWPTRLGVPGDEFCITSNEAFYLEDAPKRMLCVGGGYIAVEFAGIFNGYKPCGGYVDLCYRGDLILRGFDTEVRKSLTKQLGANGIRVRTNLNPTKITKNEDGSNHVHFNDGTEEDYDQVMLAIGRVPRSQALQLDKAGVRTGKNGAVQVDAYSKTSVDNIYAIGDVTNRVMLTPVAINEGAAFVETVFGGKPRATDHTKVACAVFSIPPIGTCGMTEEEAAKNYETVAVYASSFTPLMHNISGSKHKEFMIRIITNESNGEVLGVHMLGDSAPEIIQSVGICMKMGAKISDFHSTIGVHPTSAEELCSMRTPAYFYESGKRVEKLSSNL
Source text: S5 Fig. inhibition of Leismania infantum trypanothione reductase (LiTR) by Compound 1. Each experimental point is the average of three replicates.
The following method was used to determine the inhibition of the LiTR activity:
L. infantum TR was cloned and purified as previously described.[1] Bovine serum albumin (BSA), NADPH, auranofin, hGR, oxidized glutathione (GSSG) and DTNB were purchased from Sigma-Aldrich (St. Louis, MO); oxidized trypanothione (TS2) was purchased from Bachem (Bubendorf, Switzerland); the NADPH-Glo kit was purchased from Promega (Madison, WI, U.S.A.). Compounds, dissolved in DMSO, were transferred to 384-well white plates (Greiner Bio One, Frickenhausen, Germany) using the acoustic droplet ejection technology (ATS-100, EDC Biosystems, U.S.A.) to reach the desired final concentration. […] After 60 min of incubation at room temperature, an equal volume of NADPH-Glo reagent was added and the luminescent signal was acquired by an EnVision plate reader […]
as §3, with “Switzerland). Results were analyzed using Prism software (GraphPad, San Diego, CA, U.S.A.) and Vortex (Dotmatics, Bioshops Stortford, UK).” for “Switzerland).”

[7] = system: endogenous TbTR activity in T. brucei lysate; experiment: T. brucei lysate thiol formation assay; assay type: biochemical, Trypanosoma brucei; details: 200 μM NADPH, 50 μM TS2, 100 μM DTNB, 30 min, absorbance 412 nm; read-out: IC50, inhibition of endogenous TbTR activity in T. brucei lysate
Experimental: T. brucei parasites were grown on IMDM medium (Iscove’s Modified Dulbecco’s Medium) supplied with 3 gr/L sodium bicarbonate, 136 mg/L hypoxanthine, 39 mg/L thymidine, 28.2 mg/L bathocuprione sulfonic acid, 0.5 mM cysteine, 0.001% β-mercaptoethanol and 10% heat-inactivated Calf serum. 1.5 x 10^6 compound treated parasite per well were lysed using 1 mM EDTA, 40 mM Hepes pH 7.5, 50 mM Tris-HCl pH 7.5, 2% Triton-X100 and protease inhibitors cocktail (Sigma). 200 μM NADPH, 50 μM TS2, 100 μM DTNB were added in each well to trigger the TbTR activity. After 30 min incubation the absorbance signal (412 nm) was detected using the Safire2 plate reader (Tecan, Switzerland).

T. brucei parasites = experiment: T. brucei growth inhibition assay (CellTiter-Glo); assay type: cell-based; details: Trypanosoma brucei, 24 h treatment, read-out: IC50, anti-proliferative activity on T. brucei culture
Experimental: The anti-proliferative effect of testing compounds on T. brucei in vitro cultures was carried out by incubating compounds with 1.5 × 10^3 parasite per well followed by 24 incubation at 37°C and 5% CO2. The parasite viability was measured by CellTiter-Glo according to the manufacturer's instructions.

physchem = assay type: physicochemical; details: pH 7.4, aqueous buffer
Experimental: The solubility testing was carried out as previously reported.

[8] = TbTR assay IC50, luminescence assay, n=4, dose-response from 85 μM

## CN(CCCN1CN(c2ccccc2)C2(CCN(CC[C@@H]3CC[C@H]4C[C@@H]3C4(C)C)CC2)C1=O)CC1(O)CCN(C(=N)N)CC1 [Compound 1, 4-(((3-(8-(2-((1S,2S,5S)-6,6-dimethylbicyclo[3.1.1]heptan-2-yl)ethyl)-4-oxo-1-phenyl-1,3,8-triazaspiro[4.5]decan-3-yl)propyl)(methyl)amino)methyl)-4-hydroxypiperidine-1-carboximidamide]
[1]; TbTR IC50, luminescence assay
  IC50: 3.5 ± 2.2 µM
[1]; [8]
  IC50: 3.5 ± 2.19 µM
TbTR [2]
  IC50: 0.966 ± 0.068 µM
[3]
  IC50: > 50 µM
  activity against human glutathione reductase (hGR): no activity was detected
TbTR [4]
  Kd: 10.3 ± 2.9 µM
  koff: 0.035 ± 0.014 s⁻¹
TbTR [4]; SPR, 0.3125 to 20 μM
  binding to TbTR (reversibility): reversible binding
TbTR [5]
  change in calculated Vmax: No changes
  mode of inhibition versus TS2: competitive with TS2
[6]
  IC50: 3.8 ± 0.6 µM
[7]
  IC50: 5.7 ± 0.6 µM
T. brucei parasites
  IC50: 2.2 ± 2.4 µM
physchem
  solubility: 185 µM (≈ 113 µg/mL)

## O=C(CCCN1CCC2(CC1)C(=O)NCN2c1ccccc1)c1ccc(F)cc1 [Compound 5, Spiperone, reference compound]
[1]; luminescence assay, n=4, dose-response from 85 μM, read-out: TbTR assay IC50
  IC50: > 85 µM

## O=C(CCN1CN(c2ccccc2)C2(CCNCC2)C1=O)NC(c1ccccc1)c1ccccc1 [Compound 18]
[1]; [8]
  IC50: > 85 µM
